According to patent publication US5348949A, “Method of preparing N-oxo-tetrahydro-β-carbolines” (Duphar International Research B.V., priority 1989, dated 1994):
≈ marks a conversion by molar mass, not a printed value. Entries after “also recorded” stand apart in the source; their conditions may differ. Like-named read-outs stand apart in the source and are kept apart here.

Assays:
[1] = tested on: Polio virus; test: microbe, parasite or virus in culture; assay type: cell-based; details: read-out: MIC Polio virus
[2] = tested on: Reovirus-1; test: inhibition of virus induced cytopathogenicity, Vero cells, Reovirus-1; assay type: cell-based
Experimental: (§1) Antiviral activity of some eudistomin derivatives was determined in a large number of in-vitro assays as described in reference 9. These tests are all based on the inhibition of virus induced cytopathogenicity. Depending upon the virus studied, different cell cultures were used. […] New compound 67 has the additional advantage of a 10-fold higher potency as compared with known compound 63.

[3] = tested on: P 388 leukemia cells; test: inhibition of P 388 leukemia cells colony formation (in vitro antitumour); assay type: cell-based; details: for IC50: Mus musculus, P388, read-out: ID50
Experimental: The antitumour activity of some eudistomin derivatives and the references antitumour drug was assessed in an invitro test with high predictive power for in-vivo activity. In this assay the inhibition of P 388 leukemia cells colony formation was determined at several concentrations of the test compounds as described in reference 8. The activity is expressed as an ID50 value, which indicates the dose causing 50% inhibition with respect to untreated control cells.

[4] = tested on: Coxsackie virus B4; test: inhibition of virus induced cytopathogenicity, Hela cells, Coxsackie virus B4; assay type: cell-based; details: Enterovirus B
Experimental: as §1

[5] = cytotoxicity in MDCK cell cultures; details: dog
[6] = cytotoxicity in primary rabbit kidney (PRK) cell cultures; details: primary rabbit kidney cells
[7] = tested on: Coxsasckie virus B4; test: inhibition of virus induced cytopathogenicity, Vero cells, Coxsackie virus B4; assay type: cell-based; details: Enterovirus B
Experimental: as §1

[8] = cytotoxicity in Vero cell cultures; details: monkey, vero cells
[9] = tested on: Herpes simplex virus-1 (F); assay type: cell-based; details: Human alphaherpesvirus 1; PRK cells
Experimental: as §1

[10] = tested on: Herpes simplex virus-1 (McInyre); assay type: cell-based; details: Human alphaherpesvirus 1; PRK cells
Experimental: as §1

[11] = tested on: Herpes simplex virus-2 (Lyons); assay type: cell-based; details: Human alphaherpesvirus 2; PRK cells
Experimental: as §1

[12] = tested on: Herpes simplex virus-2 (196); assay type: cell-based; details: Human alphaherpesvirus 2; PRK cells
Experimental: as §1

[13] = tested on: Herpes simplex virus-2 (G); assay type: cell-based; details: Human alphaherpesvirus 2; PRK cells
Experimental: as §1

[14] = tested on: Herpes simplex virus-1 (KOS); assay type: cell-based; details: Human alphaherpesvirus 1; PRK cells
Experimental: as §1

[15] = tested on: influenza virus A (Ishikawa); test: microbe, parasite or virus in culture; assay type: cell-based; details: unidentified influenza virus, read-out: MIC influenza virus A (Ishikawa)
[16] = cytotoxicity in Hela cell cultures; details: human, hela cells
[17] = tested on: Sindbis virus; test: inhibition of virus induced cytopathogenicity, Vero cells, Sindbis virus; assay type: cell-based
Experimental: as §1

[18] = tested on: influenza virus B (Singapore); test: microbe, parasite or virus in culture; assay type: cell-based; details: unidentified influenza virus, read-out: MIC influenza virus B (Singapore)
[19] = tested on: Vaccinia virus; test: microbe, parasite or virus in culture; assay type: cell-based; details: Orthopoxvirus vaccinia, read-out: MIC Vaccinia virus
[20] = tested on: Semliki forest virus; test: inhibition of virus induced cytopathogenicity, Vero cells, Semliki forest virus; assay type: cell-based
Experimental: as §1

[21] = tested on: parainfluenza-3 virus; test: inhibition of virus induced cytopathogenicity, Vero cells, parainfluenza-3 virus; assay type: cell-based
Experimental: as §1

[22] = tested on: Respiratory syncytial virus (Lung); test: inhibition of virus induced cytopathogenicity, Hela cells, respiratory syncytial virus (Lung); assay type: cell-based; details: human respiratory syncytial virus
Experimental: as §1

[23] = in vitro; details: human, hela cells
[24] = in vitro; details: rabbit, primary rabbit kidney cells
[25] = in vitro; details: dog, mdck
[26] = tested on: 22 antiviral test models; test: 22 antiviral assays taken together (summary statements); assay type: cell-based
Experimental: as §1

[27] = in vitro; details: monkey, vero cells
[28] = tested on: Vesicular stomatitis virus; test: microbe, parasite or virus in culture; assay type: cell-based; details: read-out: MIC Vesicular stomatitis virus
[29] = tested on: Vesicular stomatitis virus; test: microbe, parasite or virus in culture; assay type: cell-based; details: read-out: MIC Vesicular stomatitis virus; remark: listed apart in the source

| SMILES | MIC [1] [µg/mL] | MIC [2] [µg/mL] | MIC [4] [µg/mL] | MIC [7] [µg/mL] | MIC [9] [µg/mL] | MIC [10] [µg/mL] | MIC [11] [µg/mL] | MIC [12] [µg/mL] | MIC [13] [µg/mL] | MIC [14] [µg/mL] | MIC [15] [µg/mL] | MIC [17] [µg/mL] | MIC [18] [µg/mL] | MIC [19] [µg/mL] | MIC [20] [µg/mL] | MIC [21] [µg/mL] | MIC [22] [µg/mL] | IC50 [3] [µg/mL] | MCC [23] [µg/mL] | MCC [24] [µg/mL] | also measured |
| --- | --- | --- | --- | --- | --- | --- | --- | --- | --- | --- | --- | --- | --- | --- | --- | --- | --- | --- | --- | --- | --- |
| c1ccc2c3c([nH]c2c1)C1CCSCON1CC3 (racemic) [Compound 50, (±)-Deamino, debromo Eudistomin L] | > 10 | > 10 | > 10 | > 25 | > 70 | > 70 | > 70 | > 70 | > 120 | > 70 | > 40 | > 10 | > 40 | > 70 | > 25 | > 10 | > 8 |  |  |  | ID50 ([3]; dose causing 50% inhibition of colony formation vs untreated control cells): no activity at 1.0; MCC [5]: 80 µg/mL; MCC [6]: ≥ 120 µg/mL; MCC [8]: ≥ 40 µg/mL; MCC [16]: ≥ 30 µg/mL |
| N[C@@H]1CSCON2CCc3c([nH]c4ccccc34)[C@H]12 [Compound 63, (1S.13bS)-debromo Eudistomin L] | 0.7 (≈ 2.54 µM) | 0.4 (≈ 1.45 µM) | 0.55 (≈ 2 µM) | 0.55 (≈ 2 µM) | 0.25 (≈ 0.908 µM) | 0.2 (≈ 0.726 µM) | 0.38 (≈ 1.38 µM) | 0.2 (≈ 0.726 µM) | 0.2 (≈ 0.726 µM) | 1.35 (≈ 4.9 µM) | 0.8 (≈ 2.91 µM) | 0.35 (≈ 1.27 µM) | 0.8 (≈ 2.91 µM) | 0.25 (≈ 0.908 µM) | 0.45 (≈ 1.63 µM) | > 0.6 | 0.8 (≈ 2.91 µM) | 42 (≈ 153 µM) | ≥ 4 | ≥ 25 | MCC [25]: 8 µg/mL; spectrum of antiviral activity [26]: exceptionally wide range of activities; also recorded: very broad spectrum of antiviral activity; MCC [27]: ≥ 4 µg/mL; MIC [28]: 0.2 µg/mL (≈ 0.726 µM); MIC [29]: 0.2 µg/mL (≈ 0.726 µM) |
| COc1ccc2[nH]c3c(c2c1)CCN1OCSCC(N)C31 [Compound 67, (1S,13bS)-5-methoxy Eudistomin L] | 0.045 (≈ 0.147 µM) | 0.045 (≈ 0.147 µM) | 0.045 (≈ 0.147 µM) | 0.07 (≈ 0.229 µM) | 0.039 (≈ 0.128 µM) | 0.013 (≈ 0.0426 µM) | 0.023 (≈ 0.0753 µM) | 0.014 (≈ 0.0458 µM) | 0.012 (≈ 0.0393 µM) | 0.045 (≈ 0.147 µM) | > 0.32 | 0.045 (≈ 0.147 µM) | > 0.32 | 0.012 (≈ 0.0393 µM) | 0.11 (≈ 0.36 µM) | 0.55 (≈ 1.8 µM) | 0.15 (≈ 0.491 µM) | 3.8 (≈ 12.4 µM) | 2 | ≥ 2.5 | MCC [25]: 0.8 µg/mL; spectrum of antiviral activity [26]: exceptionally wide range of activities; also recorded: very broad spectrum of antiviral activity; MCC [27]: ≥ 1 µg/mL |
| NC(=O)c1ncn([C@@H]2O[C@H](CO)[C@@H](O)[C@H]2O)n1 [Ribavirin, ribavirin, reference compound] | 110 (≈ 450 µM) | 125 (≈ 512 µM) | 70 (≈ 287 µM) | > 300 | > 200 | > 200 | > 200 | > 200 | > 200 | > 200 | 15 (≈ 61.4 µM) | > 235 | 15 (≈ 61.4 µM) | 30 (≈ 123 µM) | > 300 | 135 (≈ 553 µM) | 3 (≈ 12.3 µM) |  | ≥ 400 | ≥ 400 | MCC [25]: > 200 µg/mL; MCC [27]: > 400 µg/mL |
| COc1cccc2c1C(=O)c1c(O)c3c(c(O)c1C2=O)C[C@@](O)(C(=O)CO)C[C@@H]3O[C@H]1C[C@H](N)[C@H](O)[C@H](C)O1 [adriamycin, reference compound] |  |  |  |  |  |  |  |  |  |  |  |  |  |  |  |  |  | 20 (≈ 36.8 µM) |  |  |  |
